Results from patent US20230203043A1, “NOVEL IMIDAZOPYRAZINE DERIVATIVES” (Hoffmann-La Roche Inc., priority 2020, published 2023).
Counter-ions that a name gives are not always drawn. Like-named read-outs stand apart in the source and are kept apart here.

System: Acinetobacter baumannii ATCC17961
Experiment: Antimicrobial susceptibility testing: 90% growth inhibitory concentration (IC90) determination in Iso-Sensitest broth, OD600 growth
Format: cell-based
Conditions: Acinetobacter baumannii, ATCC17961, 16 h
Outline: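 Growth monitored at 600 nm every 20 min for 16 h at 35±2 °C, inoculum ~5×10^(5) CFU/ml in Iso-Sensitest medium. Compounds in 10-point twofold series, e.g. 50 to 0.097 μM final; 90% inhibitory concentration taken from log-phase growth.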

[1] = strain ATCC 17961, OD600 growth over 16 h, read-out: A. baumannii ATCC 17961 IC90
[2] = read-out: A. baumannii ATCC 17961 IC90 (uM), strain ATCC 17961, OD600 growth over 16 h

SMILES | IC90 [1] | IC90 [2]
CCc1cc(Nc2nccn3c(-c4cn(CC(F)F)nc4C(F)(F)F)cnc23)ccc1C(=O)NCCNC(=O)[C@@H]1CC[C@@H](N)C1 [Example 490, N-(2-((1R,3R)-3-aminocyclopentane-1-carboxamido)ethyl)-4-((3-(1-(2,2-difluoroethyl)-3-(trifluoromethyl)-1H-pyrazol-4-yl)imidazo[1,2-a]pyrazin-8-yl)amino)-2-ethylbenzamide formate] | 0.196 µM | –
CCc1cc(Nc2nccn3c(-c4cn(CC#N)nc4C(F)(F)F)cnc23)ccc1C(=O)NCCNC(=O)[C@H]1CC[C@H](N)C1 [Example 491, N-(2-((1S,3S)-3-aminocyclopentane-1-carboxamido)ethyl)-4-((3-(1-(cyanomethyl)-3-(trifluoromethyl)-1H-pyrazol-4-yl)imidazo[1,2-a]pyrazin-8-yl)amino)-2-ethylbenzamide formate] | 0.195 µM | –
CCc1cc(Nc2nccn3c(-c4cn(CC(F)F)nc4C(F)(F)F)cnc23)ccc1C(=O)NCCNC(=O)[C@H]1CC[C@H](N)C1 [Example 492, N-(2-((1S,3S)-3-aminocyclopentane-1-carboxamido)ethyl)-4-((3-(1-(2,2-difluoroethyl)-3-(trifluoromethyl)-1H-pyrazol-4-yl)imidazo[1,2-a]pyrazin-8-yl)amino)-2-ethylbenzamide formate] | 0.2 µM | –
CCc1cc(Nc2nccn3c(-c4cn(CC#N)nc4C(F)(F)F)cnc23)ccc1C(=O)NCCNC(=O)[C@H](C)N [Example 493, (S)-N-(2-(2-aminopropanamido)ethyl)-4-((3-(1-(cyanomethyl)-3-(trifluoromethyl)-1H-pyrazol-4-yl)imidazo[1,2-a]pyrazin-8-yl)amino)-2-ethylbenzamide formate] | 0.129 µM | –
CCc1cc(Nc2nccn3c(-c4cn(CC#N)nc4C(F)(F)F)cnc23)ccc1C(=O)NCCNC(=O)[C@@H]1CC[C@H](N)C1 [Example 494, N-(2-((1R,3S)-3-aminocyclopentane-1-carboxamido)ethyl)-4-((3-(1-(cyanomethyl)-3-(trifluoromethyl)-1H-pyrazol-4-yl)imidazo[1,2-a]pyrazin-8-yl)amino)-2-ethylbenzamide formate] | 0.157 µM | –
CCc1cc(Nc2nccn3c(-c4cn(CC(F)F)nc4C(F)(F)F)cnc23)ccc1C(=O)NCCNC(=O)[C@H]1CC[C@@H](N)C1 [Example 495, N-(2-((1S,3R)-3-aminocyclopentane-1-carboxamido)ethyl)-4-((3-(1-(2,2-difluoroethyl)-3-(trifluoromethyl)-1H-pyrazol-4-yl)imidazo[1,2-a]pyrazin-8-yl)amino)-2-ethylbenzamide formate] | 0.173 µM | –
CCc1cc(Nc2nccn3c(-c4cn(CC#N)nc4C(F)(F)F)cnc23)ccc1C(=O)NCCNC(=O)[C@H]1CC[C@@H](N)C1 [Example 496, N-(2-((1S,3R)-3-aminocyclopentane-1-carboxamido)ethyl)-4-((3-(1-(cyanomethyl)-3-(trifluoromethyl)-1H-pyrazol-4-yl)imidazo[1,2-a]pyrazin-8-yl)amino)-2-ethylbenzamide formate] | 0.173 µM | –
CCc1cc(Nc2nccn3c(-c4cn(CC(F)F)nc4C(F)(F)F)cnc23)ccc1C(=O)NCCNC(=O)[C@@H]1CC[C@H](N)C1 [Example 497, N-(2-((1R,3S)-3-aminocyclopentane-1-carboxamido)ethyl)-4-((3-(1-(2,2-difluoroethyl)-3-(trifluoromethyl)-1H-pyrazol-4-yl)imidazo[1,2-a]pyrazin-8-yl)amino)-2-ethylbenzamide formate] | 0.183 µM | –
CCc1cc(Nc2nccn3c(-c4cn(CC#N)nc4C(F)(F)F)cnc23)ccc1C(=O)NCCNC(=O)[C@H]1C[C@@H](N)C1 [Example 498, cis-N-(2-((1s,3s)-3-aminocyclobutane-1-carboxamido)ethyl)-4-((3-(1-(cyanomethyl)-3-(trifluoromethyl)-1H-pyrazol-4-yl)imidazo[1,2-a]pyrazin-8-yl)amino)-2-ethylbenzamide formate] | 0.193 µM | –
CCc1cc(Nc2nccn3c(-c4cn(CC#N)nc4C(F)(F)F)cnc23)ccc1C(=O)NCC(=O)N1CCNCC1 [Example 499, 4-[[3-[1-(cyanomethyl)-3-(trifluoromethyl)pyrazol-4-yl]imidazo[1,2-a]pyrazin-8-yl]amino]-2-ethyl-N-(2-oxo-2-piperazin-1-yl-ethyl)benzamide formate] | 0.218 µM | –
CCc1cc(Nc2nccn3c(-c4cn(CC#N)nc4C(F)(F)F)cnc23)ccc1C(=O)NCC(=O)N1CCC(N)CC1 [Example 500, N-[2-(4-amino-1-piperidyl)-2-oxo-ethyl]-4-[[3-[1-(cyanomethyl)-3-(trifluoromethyl)pyrazol-4-yl]imidazo[1,2-a]pyrazin-8-yl]amino]-2-ethyl-benzamide formate] | 0.222 µM | –
N#CCn1cc(-c2cnc3c(Nc4ccc(C(=O)NCC(=O)N5CCNCC5)c(Cl)c4)nccn23)c(C(F)(F)F)n1 [Example 501, 2-chloro-4-[[3-[1-(cyanomethyl)-3-(trifluoromethyl)pyrazol-4-yl]imidazo[1,2-a]pyrazin-8-yl]amino]-N-(2-oxo-2-piperazin-1-yl-ethyl)benzamide formate] | 0.224 µM | –
N#CCn1cc(-c2cnc3c(Nc4ccc(C(=O)NCC(=O)N5CCC(N)CC5)c(Cl)c4)nccn23)c(C(F)(F)F)n1 [Example 502, N-[2-(4-amino-1-piperidyl)-2-oxo-ethyl]-2-chloro-4-[[3-[1-(cyanomethyl)-3-(trifluoromethyl)pyrazol-4-yl]imidazo[1,2-a]pyrazin-8-yl]amino]benzamide formate] | 0.233 µM | –
Cc1cc(Nc2nccn3c(-c4cn(CC#N)nc4C(F)(F)F)cnc23)ccc1C(=O)NCC(=O)N1CCC(N)CC1 [Example 503, N-[2-(4-amino-1-piperidyl)-2-oxo-ethyl]-4-[[3-[1-(cyanomethyl)-3-(trifluoromethyl)pyrazol-4-yl]imidazo[1,2-a]pyrazin-8-yl]amino]-2-methyl-benzamide formate] | 0.233 µM | –
CCc1cc(Nc2nccn3c(-c4cn(CC#N)nc4C(F)(F)F)cnc23)ccc1C(=O)NCC(=O)N1CC[C@@H](N)C1 [Example 504, N-[2-[(3R)-3-aminopyrrolidin-1-yl]-2-oxo-ethyl]-4-[[3-[1-(cyanomethyl)-3-(trifluoromethyl)pyrazol-4-yl]imidazo[1,2-a]pyrazin-8-yl]amino]-2-ethyl-benzamide formate] | 0.238 µM | –
CCc1cc(Nc2nccn3c(-c4cn(CC#N)nc4C(F)(F)F)cnc23)ccc1C(=O)NCC(=O)N1CC2(CNC2)C1 [Example 505, 4-[[3-[1-(cyanomethyl)-3-(trifluoromethyl)pyrazol-4-yl]imidazo[1,2-a]pyrazin-8-yl]amino]-N-[2-(2,6-diazaspiro[3.3]heptan-2-yl)-2-oxo-ethyl]-2-ethyl-benzamide formate] | – | 0.449 µM
CCc1cc(Nc2nccn3c(-c4cn(CC#N)nc4C(F)(F)F)cnc23)ccc1C(=O)NCC(=O)N1CCCC(N)C1 (stereo not drawn) [Example 506, N-[2-(3-amino-1-piperidyl)-2-oxo-ethyl]-4-[[3-[1-(cyanomethyl)-3-(trifluoromethyl)pyrazol-4-yl]imidazo[1,2-a]pyrazin-8-yl]amino]-2-ethyl-benzamide formate] | – | 0.191 µM
CCc1cc(Nc2nccn3c(-c4cn(CC#N)nc4C(F)(F)F)cnc23)ccc1C(=O)NCC(=O)N1CCNC(C)C1 (stereo not drawn) [Example 507, 4-[[3-[1-(cyanomethyl)-3-(trifluoromethyl)pyrazol-4-yl]imidazo[1,2-a]pyrazin-8-yl]amino]-2-ethyl-N-[2-(3-methylpiperazin-1-yl)-2-oxo-ethyl]benzamide formate] | – | 0.245 µM
CCc1cc(Nc2nccn3c(-c4cn(CC#N)nc4C(F)(F)F)cnc23)ccc1C(=O)NCC(=O)N1CC2(CC(N)C2)C1 [Example 508, N-[2-(6-amino-2-azaspiro[3.3]heptan-2-yl)-2-oxo-ethyl]-4-[[3-[1-(cyanomethyl)-3-(trifluoromethyl)pyrazol-4-yl]imidazo[1,2-a]pyrazin-8-yl]amino]-2-ethyl-benzamide formate] | – | 0.198 µM
CCc1cc(Nc2nccn3c(-c4cn(CC#N)nc4C(F)(F)F)cnc23)ccc1C(=O)NCC(=O)N1CCC(CN)C1 (stereo not drawn) [Example 509, N-[2-[3-(aminomethyl)pyrrolidin-1-yl]-2-oxo-ethyl]-4-[[3-[1-(cyanomethyl)-3-(trifluoromethyl)pyrazol-4-yl]imidazo[1,2-a]pyrazin-8-yl]amino]-2-ethyl-benzamide formate] | – | 0.23 µM
CCc1cc(Nc2nccn3c(-c4cn(CC#N)nc4C(F)(F)F)cnc23)ccc1C(=O)NCC(=O)N1CCCC1CN (stereo not drawn) [Example 510, N-[2-[2-(aminomethyl)pyrrolidin-1-yl]-2-oxo-ethyl]-4-[[3-[1-(cyanomethyl)-3-(trifluoromethyl)pyrazol-4-yl]imidazo[1,2-a]pyrazin-8-yl]amino]-2-ethyl-benzamide formate] | – | 0.347 µM
CCc1cc(Nc2nccn3c(-c4cn(CC#N)nc4C(F)(F)F)cnc23)ccc1C(=O)NCC(=O)NC1C2CNCC21 (stereo not drawn) [Example 511, N-[2-(3-azabicyclo[3.1.0]hexan-6-ylamino)-2-oxo-ethyl]-4-[[3-[1-(cyanomethyl)-3-(trifluoromethyl)pyrazol-4-yl]imidazo[1,2-a]pyrazin-8-yl]amino]-2-ethyl-benzamide formate] | – | 0.295 µM
CCc1cc(Nc2nccn3c(-c4cn(CC#N)nc4C(F)(F)F)cnc23)ccc1C(=O)NCC(=O)N1CC2CC1CN2 (stereo not drawn) [Example 512, 4-[[3-[1-(cyanomethyl)-3-(trifluoromethyl)pyrazol-4-yl]imidazo[1,2-a]pyrazin-8-yl]amino]-N-[2-(2,5-diazabicyclo[2.2.1]heptan-2-yl)-2-oxo-ethyl]-2-ethyl-benzamide formate] | – | 0.341 µM
CCc1cc(Nc2nccn3c(-c4c[nH]nc4C(F)(F)F)cnc23)ccc1C(=O)NCC1CNC1 [Example 513, N-(azetidin-3-ylmethyl)-2-ethyl-4-((3-(3-(trifluoromethyl)-1H-pyrazol-4-yl)imidazo[1,2-a]pyrazin-8-yl)amino)benzamide formate] | – | 0.15 µM
